“And” between values parts separate entries of the source, which are not always exact repeats. Equal values may be shown once. Inconclusive results and toxic doses are left out. No stated cut-off is given here; in the data, active means T/C of 150% or more; inactive means T/C below 125%.
System: L1210 leukemia ip in BDF1 mice, survival T/C
Assay: NCI In Vivo Anticancer Drug Screen. Data for tumor model L1210 Leukemia (intraperitoneal) in B6D2F1 (BDF1) mice
Conditions: endpoint: mean survival time, higher = longer survival
Method in brief: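 Read-out is survival time, reported as the treated-group measurement over the vehicle-control measurement.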

[1] = dose: 100.0 mg/kg/injection, schedule: Q01DX009 (ip), vehicle: Klucel (hydroxypropylcellulose) (HPC)
[2] = dose: 100.0 mg/kg/injection, schedule: Q04DX003 (ip), vehicle: saline
[3] = dose: 200.0 mg/kg/injection, schedule: Q01DX009 (ip), vehicle: Klucel (hydroxypropylcellulose) (HPC)
[4] = dose: 200.0 mg/kg/injection, schedule: Q04DX003 (ip), vehicle: saline
[5] = dose: 400.0 mg/kg/injection, schedule: Q04DX003 (ip), vehicle: saline
[6] = dose: 100.0 mg/kg/injection, schedule: Q04DX003 (ip), vehicle: Klucel (hydroxypropylcellulose) (HPC)
[7] = dose: 200.0 mg/kg/injection, schedule: Q04DX003 (ip), vehicle: Klucel (hydroxypropylcellulose) (HPC)
[8] = dose: 400.0 mg/kg/injection, schedule: Q04DX003 (ip), vehicle: Klucel (hydroxypropylcellulose) (HPC)
[9] = dose: 100.0 mg/kg/injection, schedule: Q01DX009 (ip), vehicle: saline with Tween-80
[10] = dose: 200.0 mg/kg/injection, schedule: Q01DX009 (ip), vehicle: saline with Tween-80
[11] = dose: 400.0 mg/kg/injection, schedule: Q01DX009 (ip), vehicle: saline with Tween-80

Measured: T/C

Cc1cc2c(cc1C)NC(C)CC(=O)N2 (stereo not drawn)
inactive: dose: 25.0 mg/kg/injection, schedule: Q01DX009 (ip), vehicle: Klucel (hydroxypropylcellulose) (HPC) 109 % of control | dose: 50.0 mg/kg/injection, schedule: Q01DX009 (ip), vehicle: Klucel (hydroxypropylcellulose) (HPC) 98 % of control | [1] 104 % of control | dose: 100.0 mg/kg/injection, schedule: Q01DX009 (ip), vehicle: saline 111 % of control | [2] 96 % of control | dose: 133.0 mg/kg/injection, schedule: Q01DX009 (ip), vehicle: Klucel (hydroxypropylcellulose) (HPC) 99 % of control | [3] 94 % of control and 124 % of control | [4] 108 % of control | [5] 105 % of control

C#CCOC(=O)NCC
inactive: [2] 101 % of control | [4] 102 % of control | [5] 96 % of control

CCCCCCCCCC(=O)NC(=S)Nc1ccc(Br)cc1
inactive: dose: 100.0 mg/kg/injection, schedule: Q01DX001 (ip), vehicle: Klucel (hydroxypropylcellulose) (HPC) 93 % of control | [1] 93 % of control and 98 % of control | dose: 100.0 mg/kg/injection, schedule: Q04DX002 (ip), vehicle: Klucel (hydroxypropylcellulose) (HPC) 98 % of control and 91 % of control | [6] 92 % of control | dose: 200.0 mg/kg/injection, schedule: Q01DX001 (ip), vehicle: Klucel (hydroxypropylcellulose) (HPC) 91 % of control | [3] 91 % of control | dose: 200.0 mg/kg/injection, schedule: Q04DX002 (ip), vehicle: Klucel (hydroxypropylcellulose) (HPC) 96 % of control and 88 % of control | [7] 94 % of control | dose: 400.0 mg/kg/injection, schedule: Q01DX001 (ip), vehicle: Klucel (hydroxypropylcellulose) (HPC) 94 % of control | dose: 400.0 mg/kg/injection, schedule: Q04DX002 (ip), vehicle: Klucel (hydroxypropylcellulose) (HPC) 96 % of control and 88 % of control | [8] 102 % of control

Cc1cc(Cl)ccc1OCC(=O)Nc1cccc(C(F)(F)F)c1
inactive: dose: 100.0 mg/kg/injection, schedule: Q04DX002 (ip), vehicle: saline 103 % of control | dose: 200.0 mg/kg/injection, schedule: Q04DX002 (ip), vehicle: saline 100 % of control | dose: 400.0 mg/kg/injection, schedule: Q04DX002 (ip), vehicle: saline 92 % of control

CCN(CC)CCOc1cccc(OC)c1
inactive: dose: 25.0 mg/kg/injection, schedule: Q01DX009 (ip), vehicle: saline 95 % of control | dose: 50.0 mg/kg/injection, schedule: Q01DX009 (ip), vehicle: saline 96 % of control | dose: 75.0 mg/kg/injection, schedule: Q01DX009 (ip), vehicle: saline 95 % of control and 108 % of control

O=C(Nc1ccccc1C(=O)c1ccccn1)c1ccccc1
inactive: [6] 104 % of control | [7] 98 % of control | [8] 101 % of control

Cc1cc2nc3c(nc2cc1C)-c1ccccc1C3=O
inactive: [9] 117 % of control | [10] 101 % of control | [11] 97 % of control

CN(C)c1ccc(/C=N\NC(=O)c2ccco2)cc1
inactive: dose: 200.0 mg/kg/injection, schedule: Q01DX001 (ip), vehicle: other 93 % of control | dose: 400.0 mg/kg/injection, schedule: Q01DX001 (ip), vehicle: other 90 % of control

CCCCCCCCCCCCCCCCS(=O)(=O)c1ccc(S(=O)(=O)F)cc1NC(C)=O
inactive: [6] 91 % of control | dose: 200.0 mg/kg/injection, schedule: Q01DX009 (ip), vehicle: saline sonified 93 % of control | [7] 94 % of control | [8] 91 % of control

Nc1ccc2c(c1)Cc1cc(N)c(Br)cc1-2
inactive: dose: 100.0 mg/kg/injection, schedule: Q01DX001 (ip), vehicle: carboxymethylcellulose (CMC) 105 % of control | dose: 200.0 mg/kg/injection, schedule: Q01DX001 (ip), vehicle: carboxymethylcellulose (CMC) 109 % of control | dose: 400.0 mg/kg/injection, schedule: Q01DX001 (ip), vehicle: carboxymethylcellulose (CMC) 94 % of control

NC(=S)N/N=C1\c2ccccc2-c2c(F)c(F)c(F)c(F)c21
inactive: dose: 5.0 mg/kg/injection, schedule: Q01DX001 (ip), vehicle: carboxymethylcellulose (CMC) 96 % of control | dose: 10.0 mg/kg/injection, schedule: Q01DX001 (ip), vehicle: carboxymethylcellulose (CMC) 107 % of control | dose: 20.0 mg/kg/injection, schedule: Q01DX001 (ip), vehicle: carboxymethylcellulose (CMC) 96 % of control

O=C(/C(Br)=C/c1ccccc1)/C(Br)=C/c1ccccc1
inactive: dose: 100.0 mg/kg/injection, schedule: Q01DX001 (ip), vehicle: saline sonified 97 % of control | [9] 109 % of control | dose: 200.0 mg/kg/injection, schedule: Q01DX001 (ip), vehicle: saline sonified 98 % of control | [10] 93 % of control | dose: 400.0 mg/kg/injection, schedule: Q01DX001 (ip), vehicle: saline sonified 93 % of control | [11] 94 % of control

Reference: PubChem BioAssay AID248 (DTP/NCI, 2004)
